In patent publication US8398970B2, “Method of preventing early Lawsonia intracellularis infections” (priority 2007, dated 2013):

Tested on: Lawsonia intracellularis
Assay: Embedded early vaccination field study: performance of weaned piglets during the rearing period
Type: in vivo
Experimental: The study was carried out in a unit in North Rhine Westphalia with 160 sows and 600 breeding stalls, producing to a weekly cycle with four weeks' suckling. The piglets are sold on for fattening once they reach about 30 kg.
The unit was chosen because clinical ileitis occurred in the rearing quarters of the unit if the animals were not treated with an antibiotic effective against Lawsonia intracellularis for 10 days from the weaning time onwards. More detailed diagnosis found. Lawsonia intracellularis in the faeces of the clinically sick animals and other diarrhea-causing pathogens were ruled out.
Within the course of the study all the piglets were weighed on removal from the sows and individually marked with progressive numbering using an ear tag. A blood sample was taken from each of 15 piglets in each group of weaned animals on the day of removal from the sow and this blood was tested for antibodies to Lawsonia intracellularis. The weaned piglets were put into pens in groups of 10 animals. Four days after weaning every second group of weaned animals was vaccinated with Enterisol® Ileitis (Boehringer Ingelheim) in accordance with the manufacturer's instructions through the drinking water in their trough. The other groups remained unvaccinated. After 3 days without antibiotics following the ileitis vaccination, the piglets of all the weaned groups were subjected to tylosin therapy (10 mg/kg KGW Tylae G 25, Elanco Animal Health) for 18 days starting from the 8th day after weaning. The unvaccinated weaned piglets were also treated with tylosin in the same dosage for 18 days starting from the 8th day after weaning.
On the day of release from their pens, all the piglets were again weighed individually. In addition, blood samples were taken from 10 piglets in each market batch, and the samples were examined for antibodies to Lawsonia intracellularis using ELISA. All the study groups were subjected to identical care and feed conditions. The study encompasses a total of 891 piglets. The absolute weight gain and daily increase in growth were calculated from the weights on removal from the sows and release from the pens. The rearing period was ascertained using the weaning date and date of sale.

For `CC[C@H]1OC(=O)C[C@@H](O)[C@H](C)[C@@H](O[C@@H]2O[C@H](C)[C@@H](O[C@H]3C[C@@](C)(O)[C@@H](O)[C@H](C)O3)[C@H](N(C)C)[C@H]2O)[C@@H](CC=O)C[C@@H](C)C(=O)/C=C/C(C)=C/[C@@H]1CO[C@@H]1O[C@H](C)[C@@H](O)[C@@H](OC)[C@H]1OC` [tylosin], the rearing period (average, weaning date to date of sale) was 52.9 days, the “breeding pens blocked longer than pens containing vaccinated groups” value (difference in maximum rearing period) was 17 days and the “average gain per day” value (during rearing period) was 404 g per day. For the same compound, the Max. growth period (maximum rearing period) was 96 days, the daily increase (mean daily weight gain during rearing period) was 404 g and the sale weight (mean weight at end of rearing period) was 29.26 kg. The Min. growth period (shortest time after which a piglet was sent on for fattening) was 31 days.
